Assay results: article PMC8401736, “Identification and In Silico Characterization of Novel Helicobacter pylori Glucose-6-Phosphate Dehydrogenase Inhibitors” (Molecules, 2021)

What was measured:
HpG6PD enzyme = HpG6PD enzyme (Helicobacter pylori, UniProt P56110); assay: Inactivation assays of the HpG6PD enzyme with increasing concentrations of compounds; format: biochemical; settings: for inhibition at 800 µM: 2 h, read-out: loss of HpG6PD activity; for IC50: from plots of residual activity after incubation for 2 h at 37 °C, 200 μg/mL HpG6PD; for reduction of HpG6PD activity: at the highest concentration tested
Sequence of HpG6PD enzyme (P56110 whole entry): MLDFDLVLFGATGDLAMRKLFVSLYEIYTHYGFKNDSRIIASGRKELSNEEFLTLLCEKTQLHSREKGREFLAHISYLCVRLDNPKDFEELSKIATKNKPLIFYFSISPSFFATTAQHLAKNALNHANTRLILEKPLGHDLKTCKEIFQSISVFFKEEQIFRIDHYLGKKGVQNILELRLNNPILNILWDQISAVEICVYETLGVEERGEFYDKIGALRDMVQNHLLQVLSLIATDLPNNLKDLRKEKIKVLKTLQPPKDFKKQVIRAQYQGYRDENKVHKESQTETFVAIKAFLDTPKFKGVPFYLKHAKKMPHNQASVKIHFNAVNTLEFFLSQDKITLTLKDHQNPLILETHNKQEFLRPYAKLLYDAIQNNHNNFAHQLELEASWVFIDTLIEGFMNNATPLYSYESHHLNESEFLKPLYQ
Method: Subsequently, we performed inactivation assays using different concentrations of compounds to analyze their concentration–activity effect. […] As each of the compound’s concentrations was increased, the residual HpG6PD activity decreased in different degrees. For example, the exposure of the HpG6PD enzyme to YGC-3 and YGC-4 induced the abolition of the enzyme activity in a very similar manner (Figure 3A), the HpG6PD enzyme lost 80% of its activity at 800 µM, but when the enzyme was incubated with YGC-1, we observed a 91% loss in activity at 800 μM. On the other hand, MGD-1 and MGD-2 inactivated the HpG6PD enzyme, with 80% and 72% reductions, respectively, at the highest concentration tested (Figure 3B). […] In contrast, JMM-3 inhibited the HpG6PD enzyme at 80% with 800 µM (Figure 3D).
Figure 3 Inactivation assays of the HpG6PD enzyme with chemical compounds. The HpG6PD protein was adjusted at a final concentration of 200 μg/mL and incubated with increasing concentrations of the (A) YGC family; (B) MGD family; (C) TDA-1 compound; and (D) JMM-3 compound. The residual activity was determined after 2 h of incubation at 37 °C. […] The values represent the mean ± standard deviation from three independent experiments, and standard errors were lower than 5%.
(§1) Enzymatic activity was spectrophotometrically determined following the reduction of NADP^+ at 340 nm. The standard reaction mix contains 50 mM Tris-HCl, pH 7.6, 3 mM MgCl2, 200 µM glucose 6 phosphate and 100 µM NADP^+. The reaction was started with the addition of 1 µg of the purified HpG6PD. One unit of activity was defined as the amount of HpG6PD that catalyzes the oxidation of 1 µmol of glucose 6 phosphate per minute.

[1] = system: recombinant HpG6PD (H. pylori glucose-6-phosphate dehydrogenase); assay: High-throughput screening of HpG6PD residual activity at 400 μM; format: biochemical, Helicobacter pylori; settings: 400 μM compound, 5% DMSO, 0.2 mg/mL HpG6PD, 37 °C for two hours
Method: as §1
A chemical library of 55 compounds was evaluated through high-throughput screening (HTS) assays to determine those compounds with the ability to reduce the catalytic activity of the recombinant HpG6PD. Dr. Gabriel Navarrete-Vázquez from the Pharmacy Faculty of the Autonomous University of the State of Morelos provided the chemical compounds [32]. These compounds were selected based on the previously reported chemical inhibitors of human G6PD [21], prepared at a final concentration of 400 μM in 5% dimethyl sulfoxide (DMSO) (Sigma Aldrich, St. Louis, MO, USA), incubated with 0.2 mg/mL of HpG6PD (200 ng total) at 37 °C for two hours, and the HpG6PD residual activity was measured. In addition, the HpG6PD protein was incubated with 5% DMSO and used as a control.

recombinant human HsG6PD = recombinant human HsG6PD (Homo sapiens, UniProt P11413); assay: Inhibition of recombinant human HsG6PD at 400 μM; format: biochemical; settings: 400 μM compound
Sequence of recombinant human HsG6PD (P11413 whole entry): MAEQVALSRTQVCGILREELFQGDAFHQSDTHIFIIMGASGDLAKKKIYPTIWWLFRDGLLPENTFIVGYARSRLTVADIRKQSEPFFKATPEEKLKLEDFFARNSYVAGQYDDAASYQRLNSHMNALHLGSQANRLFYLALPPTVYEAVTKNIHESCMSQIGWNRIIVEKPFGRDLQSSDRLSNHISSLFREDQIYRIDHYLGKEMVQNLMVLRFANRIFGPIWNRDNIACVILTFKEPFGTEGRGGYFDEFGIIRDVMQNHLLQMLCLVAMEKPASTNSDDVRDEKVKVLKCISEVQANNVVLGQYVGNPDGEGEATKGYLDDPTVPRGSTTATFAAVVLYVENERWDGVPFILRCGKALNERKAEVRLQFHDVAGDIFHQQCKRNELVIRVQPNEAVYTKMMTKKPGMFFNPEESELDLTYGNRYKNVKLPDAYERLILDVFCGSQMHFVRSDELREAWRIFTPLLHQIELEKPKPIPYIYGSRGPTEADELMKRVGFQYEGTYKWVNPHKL

SMILES | inhibition at 800 µM (HpG6PD enzyme) | IC50 (HpG6PD enzyme) | HpG6PD Inhibition (%) at (400 μM) [1] | inhibition at 400 µM (recombinant human HsG6PD) | reduction of HpG6PD activity (HpG6PD enzyme; incubation for 2 h at 37 °C) | loss of HpG6PD activity (HpG6PD enzyme; by 500 µM, incubation for 2 h at 37 °C) | HpG6PD Inhibition (%) at (400 μM) ([1]; 400 µM)
COc1cc(CCC(=O)O)ccc1OCc1ccc(-c2ccccc2C#N)cc1 [JMM-3] | 80% | 304 µM | 67% | 3% |  |  | 
O=C(O)CCc1ccc(NC(=O)CSc2nc3ccccc3[nH]2)cc1 [MGD-1] |  | 465 µM | 50% | 4% | 80% |  | 
O=C(O)CCc1ccc(NC(=O)CSc2nc3ccccc3o2)cc1 [MGD-2] |  | 340 µM | 55% | 2% | 72% |  | 
COc1cc(/C=C2\SC(=O)NC2=O)ccc1OCCN1CCCCC1 [TDA-1] |  | 204 µM |  | 10% |  | total loss of activity | 91%
COc1ccc(/C=C2\SC(=O)NC2=O)cc1OCc1cccc2ccccc12 [YGC-1] | 91% | 310 µM | 84% | 8% |  |  | 
COc1ccc(/C=C2\SC(=O)NC2=O)cc1OCc1cccc(-c2ccccc2)c1 [YGC-3] | 80% | 383 µM | 50% | 0% |  |  | 
COc1ccc(/C=C2\SC(=O)NC2=O)cc1Oc1nc2ccccc2[nH]1 [YGC-4] | 80% | 500 µM | 44% | 18% |  |  | 
